Measured values published in article PMC11249646, “Small-Molecule Disruptors of the Interaction between Calcium- and Integrin-Binding Protein 1 and Integrin αIIbβ3 as Novel Antiplatelet Agents” (ACS Pharmacology & Translational Science, 2024).
Like-named read-outs stand apart in the source and are kept apart here.

Experiments:
Format in all cases: binding
[1] = molecular target: T1, CIB1 and αIIb interaction (GST-CIB1 : F-αIIb peptide) (Homo sapiens, UniProt Q99828); test: FP assay, 384-well format (screen); design: 384-well SCREEN Efficacy (%): concentration or dose not given beside the values; details: F-αIIb peptide; for 384-well SCREEN Confirm?: YES/NO; for IC50: read-out: 384-well SCREEN IC50
T1 construct: made in house; host or cells: BL-21 plus RIL cells (E. coli)
T1 sequence (Q99828 1-191): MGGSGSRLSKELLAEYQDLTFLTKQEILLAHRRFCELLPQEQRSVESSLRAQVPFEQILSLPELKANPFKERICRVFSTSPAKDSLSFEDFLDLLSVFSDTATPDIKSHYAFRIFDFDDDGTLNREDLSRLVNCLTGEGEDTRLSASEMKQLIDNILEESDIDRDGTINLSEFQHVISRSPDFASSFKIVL

[2] = molecular target: T2, GST-CIB1 : F-scrambled peptide (Homo sapiens, UniProt Q99828); test: FP scrambled-peptide counter screen, 384-well format; details: F-scrambled peptide; for IC50: read-out: 384-well COUNTERSCREEN IC50; for 384-well COUNTERSCREEN Confirm?: *: Curve in opposite direction
T2 construct: made in house; host or cells: BL-21 plus RIL cells (E. coli)
T2 sequence (Q99828 1-191): T1 sequence (Q99828 1-191)

[3] = molecular target: T3, CIB1 and αIIb interaction (CIB1-GST : F-αIIb peptide) (Homo sapiens, UniProt Q99828); test: FP assay, 1536-well qHTS format (primary and confirmatory screen); details: for CONFIRMATORY SCREEN Confirm?: YES/NO call; for CONFIRMATORY SCREEN Efficacy (%) / Efficacy (%): negative = inhibition
T3 construct: made in house; host or cells: BL-21 plus RIL cells (E. coli)
T3 sequence (Q99828 1-191): T1 sequence (Q99828 1-191)

[4] = molecular target: T2, GST-CIB1 : F-scrambled peptide; test: FP scrambled-peptide counter screen, 1536-well format; details: for COUNTERSCREEN Confirm?: YES/NO call
[5] = confirmatory screen, qHTS curve class, negative sign = inhibitory curve
[6] = confirmatory screen, read-out: CONFIRMATORY SCREEN IC50
[7] = qHTS primary screen hits, Table S2
[8] = qHTS primary screen hits, Table S2, negative sign = inhibitory curve
[9] = qHTS primary screen hits, Table S2, read-out: IC50
[10] = scrambled-peptide counterscreen
[11] = scrambled-peptide counterscreen, qHTS curve class
[12] = qHTS FP screen hits, Table S2, one class per curve where COUNT > 1, negative sign = inhibitory curve
[13] = qHTS FP screen hits, Table S2, read-out: IC50
[14] = qHTS primary screen hits, Table S2, negative sign = inhibitory curve, several classes where COUNT > 1
[15] = scrambled-peptide counterscreen, read-out: COUNTERSCREEN IC50

Compound	384-well SCREEN Efficacy (%) [1]	384-well SCREEN Confirm? [1]	IC50 [1]	384-well COUNTERSCREEN Efficacy (%) [2]	IC50 [2]	CONFIRMATORY SCREEN Confirm? ([3]; confirmatory screen)	CONFIRMATORY SCREEN Curve Class [3, 5]	CONFIRMATORY SCREEN Efficacy (%) ([3]; confirmatory screen)	IC50 [3, 6]	Efficacy (%) [3, 7]	IC50 [3, 9]	COUNTERSCREEN Efficacy (%) [4, 10]	COUNTERSCREEN Confirm? [4, 10]	COUNTERSCREEN Curve Class [4, 11]	384-well COUNTERSCREEN Confirm? [2]	Efficacy (%) ([3]; qHTS FP screen hits, Table S2)	Curve Class [3, 12]	IC50 [3, 13]	IC50 [4, 15]	also measured
O=C(CN(c1cccc(Br)c1)S(=O)(=O)c1ccccc1)NN=CC1=CC(=[N+]([O-])O)C=CC1=O.O=C(O)C(F)(F)F [NCGC00248455-01]	40%	YES	11.2 µM	52%	15.8 µM	YES	-2.1	-91%	31.6 µM	-62%	17.8 µM	-13%	YES	4	–	–	–	–	–	Curve Class [3, 8]: -2.2
N#Cc1cnc(NS(=O)(=O)c2ccc(NC(=O)Cc3ccc(Cl)c(Cl)c3)cc2)s1.O=C(O)C(F)(F)F [NCGC00250147-02]	42%	YES	7.9 µM	25%	> 120 µM	YES	-1.2	-48%	6.3 µM	–	–	20%	YES	4	YES	-40%	-1.2	5.6 µM	–	–
Cl.NC(CO)(CO)CCc1ccc(Sc2cccc(OCc3ccccc3)c2)cc1Cl [NCGC00250388-02]	57%	YES	31.6 µM	17%	> 120 µM	YES	-2.4	-80%	50.1 µM	-71%	79.4 µM	-28%	YES	4	YES	–	–	–	–	Curve Class [3, 14]: -2.2
Cc1cc2c(C(C)C)c(O)c(O)c(C=O)c2c(O)c1-c1c(C)cc2c(C(C)C)c(O)c(O)c(C=O)c2c1O [NCGC00261532-01]	90%	YES	2.7 µM	60%	33 µM	–	–	–	–	–	–	–	–	–	YES	–	–	–	–	Efficacy (%) (confirmatory screen) ([3]; confirmatory screen): -70%; Confirm? (confirmatory screen) ([3]; confirmatory screen, YES/NO): YES; Curve Class (confirmatory screen) [3, 5]: -1.4; IC50 ([3]; confirmatory screen, read-out: IC50 [μM] (confirmatory screen)): 2.8 µM; Efficacy (%) (counterscreen) ([4]; counterscreen): -63%; Curve Class (counterscreen) ([4]; counterscreen, qHTS curve class, negative sign = inhibitory curve): -1.2; IC50 ([4]; counterscreen, read-out: IC50 [μM] (counterscreen)): 7.1 µM
Cc1ccc(S(=O)(=O)Nc2cnccc2C(=O)Nc2nc(-c3ccccc3)cs2)cc1.O=C(O)C(F)(F)F [NCGC00262386-01]	29%	YES	16.1 µM	42%	> 120 µM	YES	-1.2	-53%	14.1 µM	-42%	27.4 µM	-51%	YES	-3	YES	–	–	–	89.1 µM	–
COc1ccc(C(=O)Nc2nc(-c3ccccc3)cs2)c(NS(=O)(=O)c2ccc(C)cc2)c1.O=C(O)C(F)(F)F [NCGC00262390-01]	24%	–	> 120 µM	102%	31.6 µM	YES	-1.2	-60%	11.2 µM	–	–	92%	YES	–	–	-22%	–	17.8 µM	70.8 µM	–
O=c1sc2ccccc2c(O)c1C1CC(c2ccc(-c3ccc(Br)cc3)cc2)Cc2ccccc21 (centres unmarked) [NCGC00262959-01]	87%	–	> 120 µM	156%	25.1 µM	YES	-1.4	-49%	7.1 µM	–	–	118%	YES	–	–	-38%	-1.2	17.8 µM	79.4 µM	–
Cc1ccc(S(=O)(=O)Nc2cc([N+](=O)[O-])ccc2C(=O)Nc2nc(-c3ccccc3)cs2)cc1.O=C(O)C(F)(F)F [NCGC00262992-01]	135%	YES	> 120 µM	115%	79.4 µM	YES	-1.1	-97%	5.6 µM	-34%	10 µM	42%	YES	4	–	–	–	–	–	Curve Class [3, 8]: -2.4
Cc1ccc(S(=O)(=O)Nc2cnccc2C(=O)Nc2nc(-c3ccc4c(c3)CCCC4)cs2)cc1.O=C(O)C(F)(F)F [NCGC00318953-01]	20%	–	> 120 µM	125%	35.5 µM	YES	-1.2	-70%	–	–	–	-23%	YES	4	–	-37%	-1.2	20 µM	–	–
Cc1ccc(S(=O)(=O)Nc2cnccc2C(=O)Nc2nc(-c3ccc(C)c(C)c3)cs2)cc1.O=C(O)C(F)(F)F [NCGC00318954-01]	52%	YES	16 µM	37%	31.6 µM	YES	-1.4	-70%	22.4 µM	-61%	–	17%	YES	4	YES*	–	–	–	–	Curve Class [3, 14]: -3
